Data: US4021479A, “Derivatives of 4-(4-biphenylyl)-butyric acid” (Boehringer Ingelheim GmbH, priority 1971, dated 1977)
Where a name gives a salt, the structure may show the parent alone.

Experiments:
Type in all cases: in vivo
[1] = system: kaolin-induced edema in the hind paw of rats; assay: antiexudative action against the kaolin-induced edema in the hind paw of rats (Hillebrecht); details: Rattus norvegicus, po, dose which produces a 35% reduction in the edematous swelling
Description: The antiphlogistic activity of the compounds of the present invention was ascertained by the standard test method Hillebrecht described in Arzneimittelforschung 4, 607-614 (1954), i.e. in terms of the antiexudative action against the kaolin-induced edema in the hind paw of rats. The measurements were carried out by the method of Doepfner and Cerletti, Int. Arch. Allergy and Appl. Immunology 12, 89-97 (1958). The data thus obtained were plotted on a dose-activity graph, and from the resulting curve the dose which produces a 35% reduction in the edematons swelling (ED35) was graphically calculated for each compound.

[2] = acute toxicity (LD50) in adult laboratory rats; details: rat, in vivo, po, adult rats, observation period of 14 days
Description: (§1) The acute toxicities of the compounds (LD50) were determined in adult laboratory rats from the percentage of animals which died after administration of varying doses within an observation period of 14 days [see J. Pharmacol. exper. Therap. 96, 99 1949)].

adult laboratory rats = assay: acute toxicity (LD50) in adult laboratory rats; details: p.o., rats, printed in parentheses under the LD50 bound; observation period of 14 days
Description: as §1

Row | Compound | ED35 [1] | LD50 at 336 h [2] | animals died (adult laboratory rats)
1 | O=C(O)CCCc1ccc(-c2ccc([N+](=O)[O-])cc2)cc1 [G, cyclohexylamine salt of 4-(4'-nitro-4-biphenylyl)-butyric acid] | 30 mg/kg | > 1000 mg/kg | 0 out of 10
2 | O=C(O)CCCc1ccc(-c2ccccc2Cl)cc1 [F, cyclohexylamine salt of 4-(2'-chloro-4-biphenylyl)-butyric acid] | 50 mg/kg | > 1000 mg/kg | 2 out of 10
3 | O=C(O)CCCc1ccc(-c2ccccc2[N+](=O)[O-])cc1 [C, cyclohexylamine salt of 4-(2'-nitro-4-biphenylyl)-butyric acid] | 66 mg/kg | > 1000 mg/kg | 3 out of 10
4 | O=C(O)CCC(O)c1ccc(-c2ccccc2[N+](=O)[O-])cc1 (centres unmarked) [A, cyclohexylamine salt of 4-(2'-nitro-4-biphenylyl)-4-hydroxy-butyric acid] | 30 mg/kg | > 500 mg/kg | 0 out of 5
5 | O=C(O)CCCc1ccc(-c2ccccc2F)cc1 [D, cyclohexylamine salt of 4-(2'-fluoro-4-biphenylyl)-butyric acid] | 37 mg/kg | > 500 mg/kg | 0 out of 10
6 | O=C(O)CCC(O)c1ccc(-c2ccccc2Cl)cc1 (centres unmarked) [Compound E, cyclohexylamine salt of 4-(2'-chloro-4-biphenylyl)-4-hydroxy-butyric acid] | 27 mg/kg | > 1000 mg/kg | 1 out of 10
7 | Nc1ccccc1-c1ccc(C(O)CCC(=O)O)cc1 (centres unmarked) [B, cyclohexylamine salt of 4-(2'-amino-4-biphenylyl)-4-hydroxy-butyric acid] | 66 mg/kg | 1340 mg/kg | –
